Assay results published in paper PMC4399838, “Antipsychotic-Like Effect of the Muscarinic Acetylcholine Receptor Agonist BuTAC in Non-Human Primates” (PLoS ONE, 2015).
“Also recorded” adds a separate entry of the source.

Columns and labels:
[1] = test system: antipsychotic-naïve Cebus Apella monkeys; test: d-Amphetamine-induced behaviour (unrest, stereotypies, arousal), video rating; format: in vivo; conditions: d-amphetamine 0.5 mg/kg
Experimental: (§1) Seven male Cebus Apella monkeys were used for evaluation the anti-amphetamine effect and the side effect profile of BuTAC. These monkeys were never before administered antipsychotics and had never experienced EPS, but had previously been administered amphetamine. For further evaluation of the EPS potential of BuTAC, the compound was tested in four male and female monkeys, all sensitized to drug-induced EPS by earlier chronic treatment with classical antipsychotic drugs.
All monkeys received all treatments with at least one week between tests and thus served as their own control. To avoid extended physical contact with the experimenter, the cages were reduced in sized by moving the back wall of the cage closer to the front wall to lightly immobilize the monkey while injecting the test substance in the thigh. This was done at 9 am at test days. After the appropriate pre-treatment time, the monkeys were videotaped in their cages at predefined time points after drug injection.
(§2) The rated primate behaviours and symptoms were the following: unrest, stereotypy, arousal, sedation and bradykinesia (Table 1). All monkeys were videotaped in 90-sec. sessions at specific time points throughout the test sessions. The videotapes were rated for amphetamine-induced behaviours and EPS by two experienced raters blinded to the treatment of the animal by means of a rating scale adapted from Peacock et al. and previously described by Andersen et al. (Table 1). In case of any discrepancy between the two ratings, the recording in question was re-evaluated and a rating agreed upon. The monkeys were videotaped at t = 30, 60, 90, 135, 150, 165, 180, 240, 300 min after BuTAC (or vehicle) administration. For the combination studies, d-amphetamine was injected at t = 120 min. Oral dyskinesia was measured in counts per 90 sec. The severity of other behaviours and symptoms were rated on a scale ranging from 0 (not present) to 6 (extreme presence).
(§3) For evaluation of anti-amphetamine effects, BuTAC was tested in doses of 0.001, 0.003, 0.01 mg/kg in combination with 0.5 mg/kg of d-amphetamine. BuTAC or peanut oil vehicle was injected s.c. at approximately 9 a.m. Pre-treatment time before s.c. injection of amphetamine was 120 min. For evaluation of side effects, BuTAC was tested alone at doses of 0.001, 0.003 and 0.01 mg/kg in antipsychotic-naïve monkeys and at doses of 0.003 and 0.01 mg/kg in monkeys sensitized to extrapyramidal side effects (EPS) by earlier long-term treatment with first generation antipsychotics. […] None of the animals were sacrificed.
Data from the experiments where BuTAC was administered alone collected at t = 60, 180, 300 min are presented. For the d-amphetamine / BuTAC study, data collected at t(amp) = 60, 120 and 180 min (t = 180, 240, 300 min) are reported. Data were analyzed for overall treatment effects at each time point by means of the non-parametric Friedman’s test for repeated measures. The Student Newman-Keuls comparison procedure was used to analyze for specific dose effects. For all tests, the accepted level of significance was p<0.05.

EPS sensitized monkeys = test: Side effects (EPS) of BuTAC in EPS-sensitized monkeys; format: in vivo, Cebus Apella
Experimental: as §1
The EPS sensitized monkeys were originally caught in the wild and had been at the laboratory for 13–20 years at the time of testing. The EPS naïve monkeys were born in captivity and had been at the laboratory for 7 years at the time of testing. They were between 11 and 18 years old, when the studies were initiated. The monkeys weighed between 2.5 kg (smallest female) and 5 kg (largest male). Their weight was monitored weekly and they were regularly checked by a veterinarian.
as §2, §3

monkeys = test: BuTAC-induced emesis and its inhibition by domperidone; format: in vivo, Cebus Apella; conditions: BuTAC 0.01 mg/kg alone; observed 300 minutes
Experimental: S1 Table. Emesis BuTAC / Domperidone
BuTAC 0.01 mg/kg / 1 in 7
Domperidone was purchased from Tocris Bioscience (Bristol, United Kingdom) and dissolved
in 0.9% saline. The compound was administered subcutaneously where after the animals

M1AChR = target: T1, M1AChR (Homo sapiens, UniProt P11229); test: Competitive radioligand binding
T1 sequence (P11229 1-460): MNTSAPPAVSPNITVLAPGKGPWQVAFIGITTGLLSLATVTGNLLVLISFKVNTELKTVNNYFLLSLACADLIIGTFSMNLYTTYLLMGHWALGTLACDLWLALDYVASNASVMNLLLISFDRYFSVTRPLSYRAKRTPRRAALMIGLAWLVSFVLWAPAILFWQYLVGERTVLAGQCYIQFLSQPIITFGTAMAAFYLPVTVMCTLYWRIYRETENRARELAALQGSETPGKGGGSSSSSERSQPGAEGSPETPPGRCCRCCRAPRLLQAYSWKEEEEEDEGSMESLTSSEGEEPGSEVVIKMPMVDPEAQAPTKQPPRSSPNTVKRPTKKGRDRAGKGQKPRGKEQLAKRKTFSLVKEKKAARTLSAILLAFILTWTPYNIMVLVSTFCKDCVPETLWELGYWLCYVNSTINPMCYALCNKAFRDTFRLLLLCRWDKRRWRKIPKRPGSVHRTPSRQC

M2AChR = target: T2, M2AChR (Homo sapiens, UniProt P08172); test: Competitive radioligand binding
T2 sequence (P08172 1-466): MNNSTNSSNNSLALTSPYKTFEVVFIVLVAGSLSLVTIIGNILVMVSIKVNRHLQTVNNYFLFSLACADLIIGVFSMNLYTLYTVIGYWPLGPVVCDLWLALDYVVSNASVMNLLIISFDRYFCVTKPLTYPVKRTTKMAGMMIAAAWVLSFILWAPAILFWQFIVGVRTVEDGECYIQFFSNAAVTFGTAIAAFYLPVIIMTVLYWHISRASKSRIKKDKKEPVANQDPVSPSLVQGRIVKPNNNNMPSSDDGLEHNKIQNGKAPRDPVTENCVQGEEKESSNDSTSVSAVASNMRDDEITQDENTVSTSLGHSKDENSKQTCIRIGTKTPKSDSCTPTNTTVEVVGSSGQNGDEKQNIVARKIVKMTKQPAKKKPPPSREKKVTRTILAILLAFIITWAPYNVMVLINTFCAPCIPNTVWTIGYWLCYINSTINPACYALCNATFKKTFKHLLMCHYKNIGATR

[2] = BuTAC 0.003 mg/kg s.c., at 180 min
[3] = BuTAC 0.01 mg/kg s.c., at 120 and 180 min
[4] = BuTAC 0.01 mg/kg, four EPS sensitized monkeys

Compound | Effect on d-amphetamine-induced arousal ([1]; BuTAC 0.001 mg/kg s.c., at 60 min) | Effect on amphetamine-induced stereotypies [1, 2] | Effect on amphetamine-induced unrest [1, 2] | Effect on amphetamine-induced stereotypies [1, 3] | Effect on amphetamine-induced unrest [1, 3] | Effect on d-amphetamine-induced arousal ([1]; BuTAC 0.003 and 0.01 mg/kg s.c., at 60, 120 and 180 min) | EPS (EPS sensitized monkeys; BuTAC 0.003 mg/kg) | Mild bradykinesia (monkeys affected) (EPS sensitized monkeys; [4]) | Oral dyskinesia and dystonia (EPS sensitized monkeys; [4]) | Sedation (monkeys affected) (EPS sensitized monkeys; [4]) | EPS (EPS sensitized monkeys; lower doses, 0.001- or 0.003 mg/kg of BuTAC (discussion)) | Emetic events (vomiting), monkeys with emesis (monkeys) | Ki (M1AChR) [nM] | Ki (M2AChR) [nM]
CCCCSc1nsnc1[C@H]1CN2CCC[C@H]1C2 [BuTAC, (5R,6R)-6-(3-butylthio-1,2,5-thiadiazol-4-yl)-1-azabicyclo[3.2.1]octane] | counteracted | significantly reduced | significantly counteracted | significantly reduced | significantly counteracted | counteracted | no EPS | Two | not observed; also recorded: no signs | all four | no signs of EPS | 7/7 | – | –
CCCSc1nsnc1[C@H]1CN2CCC[C@H]1C2 [PTAC, (5R,6R) 6-(3-propylthio-1,2,5-thiadiazol-4-yl)-1-azabicyclo-[3.2.1]-octane] | – | – | – | – | – | – | – | – | – | – | – | – | 1.05 | 3.8
